Laboratory results as given in ChEMBL document CHEMBL2449286, “Structure-activity data for a series of P-glycoprotein inhibitors (Supplementary Data to CHEMBL1142990)”.

Biological target: ATP-dependent translocase ABCB1 (Homo sapiens, UniProt P08183)
Sequence (P08183 whole entry): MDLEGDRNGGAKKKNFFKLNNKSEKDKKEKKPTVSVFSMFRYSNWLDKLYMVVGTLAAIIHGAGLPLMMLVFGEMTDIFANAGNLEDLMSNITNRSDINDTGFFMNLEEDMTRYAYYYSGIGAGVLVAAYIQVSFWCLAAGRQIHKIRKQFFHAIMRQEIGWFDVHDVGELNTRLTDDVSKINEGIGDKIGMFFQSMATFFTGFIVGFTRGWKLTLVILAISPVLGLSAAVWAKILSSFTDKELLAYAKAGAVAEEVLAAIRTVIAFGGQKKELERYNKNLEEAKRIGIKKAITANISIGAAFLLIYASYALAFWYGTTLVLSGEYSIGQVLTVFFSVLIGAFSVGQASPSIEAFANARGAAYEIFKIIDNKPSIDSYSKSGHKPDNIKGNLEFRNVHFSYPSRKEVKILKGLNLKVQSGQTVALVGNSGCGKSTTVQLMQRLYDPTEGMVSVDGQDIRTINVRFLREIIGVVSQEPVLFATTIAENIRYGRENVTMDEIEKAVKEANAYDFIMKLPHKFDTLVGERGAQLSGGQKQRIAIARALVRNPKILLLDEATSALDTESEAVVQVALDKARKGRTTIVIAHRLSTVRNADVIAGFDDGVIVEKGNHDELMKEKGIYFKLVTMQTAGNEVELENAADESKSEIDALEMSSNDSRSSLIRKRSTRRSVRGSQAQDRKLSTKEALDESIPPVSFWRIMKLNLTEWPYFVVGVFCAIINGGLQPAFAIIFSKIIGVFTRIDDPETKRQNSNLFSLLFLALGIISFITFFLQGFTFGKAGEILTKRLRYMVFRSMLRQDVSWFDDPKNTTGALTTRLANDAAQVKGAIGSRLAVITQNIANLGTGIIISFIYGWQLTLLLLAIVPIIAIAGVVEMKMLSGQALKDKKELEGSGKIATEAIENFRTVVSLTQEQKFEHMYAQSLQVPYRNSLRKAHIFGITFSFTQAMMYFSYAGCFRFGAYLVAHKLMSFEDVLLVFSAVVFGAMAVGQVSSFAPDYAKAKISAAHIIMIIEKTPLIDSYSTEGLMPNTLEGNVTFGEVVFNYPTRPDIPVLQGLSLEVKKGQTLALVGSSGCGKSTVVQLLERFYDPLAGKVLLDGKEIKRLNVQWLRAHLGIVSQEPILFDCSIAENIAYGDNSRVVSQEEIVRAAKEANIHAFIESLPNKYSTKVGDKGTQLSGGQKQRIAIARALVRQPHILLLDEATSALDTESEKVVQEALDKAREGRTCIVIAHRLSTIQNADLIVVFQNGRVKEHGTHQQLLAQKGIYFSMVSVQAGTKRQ

Going from Cc1ccc(-c2n[nH]c3c2[C@@H](c2ccc(N(C)C)cc2)C(C#N)=C(N)O3)cc1 to CCOc1ccc(N2C(=O)c3ccccc3N[C@H]2c2ccc(N(C)C)cc2)cc1, the EC50 rises from 3090 nM to 25100 nM (8.1-fold). The first is the more potent here.

Going from O=C(CCc1cccc2ccccc12)c1ccccc1OC[C@H](O)CN1CCN(c2ccc(F)cc2)CC1 to O=C(CCc1cccc2ccccc12)c1ccc(OC[C@H](O)CN2CCN(c3ccc(F)cc3)CC2)cc1, the EC50 rises from 17.8 nM to 550 nM (31-fold). The first is the more potent here.

First: O=C(c1ccccc1)c1ccc(OC[C@H](O)CN2CCOCC2)cc1
Second: O=C(c1ccccc1)c1cccc(OC[C@H](O)CN2CCOCC2)c1
The EC50 of the first is 2.1-fold lower: 5370 nM for the first, 11500 nM for the second.

Compared with O=C(c1ccccc1)c1ccc(OC[C@H](O)CN2CCCCC2)cc1, O=C(c1ccccc1)c1cccc(OC[C@H](O)CN2CCCCC2)c1 is 1.6-fold higher in EC50: 2190 nM for the first, 3550 nM for the second.

First: CCC(=O)c1ccc(OC[C@H](O)CN(C(C)C)C(C)C)cc1
Second: CC(C)N(C[C@@H](O)COc1ccc(C(=O)c2ccccc2)cc1)C(C)C
The EC50 of the first is 18-fold higher: 7760 nM for the first, 437 nM for the second.

Compared with O=C(c1ccccc1)c1cccc(OC[C@H](O)CN2CCN(c3ccc(F)cc3)CC2)c1, Cc1ccccc1N1CCN(C[C@@H](O)COc2cccc(C(=O)c3ccccc3)c2)CC1 is 2.8-fold lower in EC50: 575 nM for the first, 204 nM for the second.

Compared with Cc1cccc(N2CCN(C[C@@H](O)COc3cccc(C(=O)c4ccccc4)c3)CC2)c1C, Cc1cccc(N2CCN(C[C@@H](O)COc3cccc(C(=O)CCc4cccc5ccccc45)c3)CC2)c1C is 1.5-fold higher in EC50: 174 nM for the first, 263 nM for the second.

Cc1cccc(N2CCN(C[C@@H](O)COc3ccc(C(=O)CCc4cccc5ccccc45)cc3)CC2)c1C and Cc1ccccc1N1CCN(C[C@@H](O)COc2ccc(C(=O)CCc3cccc4ccccc34)cc2)CC1 are within 1.5-fold of each other in EC50: 479 nM for the first, 407 nM for the second.

Going from O=C(CCc1cccc2ccccc12)c1ccc(OC[C@H](O)CN2CCCCC2)cc1 to O=C(CCc1cccc2ccccc12)c1cccc(OC[C@H](O)CN2CCCCC2)c1, the EC50 falls from 263 nM to 145 nM (1.8-fold). The second is the more potent here.

Going from CC(C)N(C[C@@H](O)COc1ccc(C(=O)CCc2cccc3ccccc23)cc1)C(C)C to CC(C)N(C[C@@H](O)COc1cccc(C(=O)CCc2cccc3ccccc23)c1)C(C)C, the EC50 falls from 115 nM to 58.9 nM (2-fold). The second is the more potent here.

O=C(CCc1cccc2ccccc12)c1cccc(OC[C@H](O)CN2CCOCC2)c1 and Cc1ccccc1N1CCN(C[C@@H](O)Cn2c(C)c(C(=O)c3ccccc3)c(=O)n2-c2ccccc2)CC1 are within 1.5-fold of each other in EC50: 631 nM for the first, 891 nM for the second.

First: Cc1c(C(=O)c2ccccc2)c(=O)n(-c2ccccc2)n1C[C@H](O)CN(C(C)C)C(C)C
Second: Cc1c(C(=O)c2ccccc2)c(=O)n(-c2ccccc2)n1C[C@H](O)CNC(C)C
The EC50 of the first is 5.3-fold lower: 15800 nM for the first, 83200 nM for the second. The first is the more potent here.

Compared with Cc1c(C(=O)c2ccccc2)c(=O)n(C)n1C[C@H](O)CN(C(C)C)C(C)C, Cc1nn(C)c(OC[C@H](O)CN(C(C)C)C(C)C)c1C(=O)c1ccccc1 is 20-fold lower in EC50: 24000 nM for the first, 1200 nM for the second.

First: Cc1c([C@H](O)c2ccccc2)c(=O)n(-c2ccccc2)n1C[C@H](O)CN(C(C)C)C(C)C
Second: Cc1c(C(=O)CCc2ccccc2)c(=O)n(-c2ccccc2)n1C[C@H](O)CNC(C)C
The EC50 of the first is 2.1-fold higher: 24000 nM for the first, 11700 nM for the second.

First: CCC/N=C(/CCc1ccccc1)[C@H]1C(=O)N(c2ccccc2)N=C1C
Second: CCCNC[C@@H](O)Cn1c(C)c(C(=O)CCc2ccccc2)c(=O)n1-c1ccccc1
The EC50 of the first is 1.7-fold lower: 3720 nM for the first, 6310 nM for the second.

Going from CCCNC[C@@H](O)Cn1c(C)c(C(=O)c2ccccc2)c(=O)n1-c1ccccc1 to Cc1c(C(=O)c2ccccc2)c(=O)n(-c2ccccc2)n1C[C@H](O)CNC(C)(C)C, the EC50 falls from 186000 nM to 81300 nM (2.3-fold). The second is the more potent here.

Compared with Cc1c(C(=O)CCc2ccccc2)c(=O)n(-c2ccccc2)n1C[C@H](O)CNC(C)(C)C, CCCCNC[C@@H](O)Cn1c(C)c(C(=O)CCc2ccccc2)c(=O)n1-c1ccccc1 is 2.9-fold lower in EC50: 7760 nM for the first, 2690 nM for the second. The second is the more potent here.

Compared with Cc1c(C(=O)c2cccs2)c(=O)n(-c2ccccc2)n1C[C@H](O)CNC(C)(C)C, Cc1c(C(=O)c2cccs2)c(=O)n(-c2ccccc2)n1C[C@H](O)CNC(C)C is 1.7-fold higher in EC50: 72400 nM for the first, 123000 nM for the second.

First: CCCNC[C@@H](O)Cn1c(C)c(C(=O)c2cccs2)c(=O)n1-c1ccccc1
Second: CCCNC[C@@H](O)COc1ccsc1C(=O)CCc1ccccc1
The EC50 of the first is 120-fold higher: 95500 nM for the first, 813 nM for the second.

First: CN1CCO[C@@H]2[C@@H]1c1cc(C#N)ccc1OC2(C)C
Second: CC1(C)Oc2ccc(C#N)cc2[C@H]2[C@H]1OCCN2Cc1ccccc1
The EC50 of the first is 3.2-fold higher: 61700 nM for the first, 19500 nM for the second.

Compared with CN(CCO)[C@H]1c2cc(C#N)ccc2OC(C)(C)[C@@H]1O, CC1(C)Oc2ccc(C#N)cc2[C@H](N(CCO)Cc2ccccc2)[C@H]1O is 18-fold lower in EC50: 97700 nM for the first, 5370 nM for the second. The second is the more potent here.

Going from CC(C)[C@H](C(=O)OC(C)(C)C)N(C)[C@H]1c2cc(C#N)ccc2OC(C)(C)[C@@H]1O to CC(C)[C@H](N[C@H]1c2cc(C#N)ccc2OC(C)(C)[C@@H]1O)C(=O)OC(C)(C)C, the EC50 rises from 977 nM to 1780 nM (1.8-fold). The first is the more potent here.

CC(C)[C@@H]1CO[C@@H]2[C@@H](N1)c1cc(C#N)ccc1OC2(C)C and CC(C)(C)OC(=O)CN[C@H]1c2cc(C#N)ccc2OC(C)(C)[C@@H]1O are within 1.5-fold of each other in EC50: 49000 nM for the first, 46800 nM for the second.

Going from COc1ccccc1N1CCN([C@H]2c3ccccc3N(C(=O)c3ccc(C)cc3)[C@H](C)[C@@H]2O)CC1 to Cc1ccc(C(=O)N2c3ccccc3[C@H](N3CCN(Cc4ccccc4)CC3)[C@@H](O)[C@H]2C)cc1, the EC50 falls from 3550 nM to 427 nM (8.3-fold).

Going from CCN(CCO)[C@@H]1c2ccccc2N(C(=O)c2ccc(C)cc2)[C@H](C)[C@@H]1O to Cc1ccc(C(=O)N2c3ccccc3[C@@H](N(CCO)Cc3ccccc3)[C@@H](O)[C@H]2C)cc1, the EC50 falls from 9120 nM to 1380 nM (6.6-fold). The second is the more potent here.

Compared with Cc1ccc(C(=O)N2c3ccccc3[C@H](NCc3ccccc3)[C@@H](O)[C@H]2C)cc1, Cc1ccc(C(=O)N2c3ccccc3[C@@H](N3CCCC3)[C@@H](O)[C@H]2C)cc1 is 2.5-fold higher in EC50: 3240 nM for the first, 7940 nM for the second. The first is the more potent here.

Going from Cc1ccc(C(=O)O[C@@H]2[C@H](N3CCCC3)c3ccccc3N[C@@H]2C)cc1 to CCN(CC)CCC[C@H](C)N[C@@H]1c2ccccc2N[C@H](C)[C@@H]1OC(=O)c1ccc(C)cc1, the EC50 falls from 4680 nM to 331 nM (14-fold). The second is the more potent here.

CCN(CC)CCC[C@H](C)N[C@@H]1c2ccccc2N(C(=O)c2ccc(C)cc2)[C@H](C)[C@@H]1O and CC(C)(C)OC(=O)CN(Cc1ccccc1)[C@H]1c2cc(C#N)ccc2OC(C)(C)[C@@H]1O are within 1.5-fold of each other in EC50: 2690 nM for the first, 2000 nM for the second.

Compared with CCc1ccc(N2C(=O)c3ccccc3N[C@H]2c2ccc(OCC(C)C)cc2)cc1, CC[C@H](C)c1ccc(N2C(=O)c3ccccc3N[C@H]2c2ccc(OC)cc2)cc1 is 1.6-fold lower in EC50: 1200 nM for the first, 759 nM for the second.

Going from COc1ccc([C@@H]2Nc3ccccc3C(=O)N2c2ccc(NC(C)=O)cc2)cc1 to COc1ccc([C@@H]2Nc3ccccc3C(=O)N2c2ccc(Oc3ccccc3)cc2)cc1, the EC50 falls from 20900 nM to 1000 nM (21-fold).

Compared with CC[C@H](C)c1ccc(N2C(=O)c3ccccc3N[C@H]2c2ccc(C(C)C)cc2)cc1, CC(C)(C)c1ccc(N2C(=O)c3ccccc3N[C@H]2c2ccc3c(c2)OCO3)cc1 is 2.6-fold higher in EC50: 288 nM for the first, 741 nM for the second. The first is the more potent here.

Compared with CCOc1ccccc1NC(=O)C1=C(C)NC(=S)N[C@@H]1c1cccs1, CC1(C)Oc2ccc(C#N)cc2[C@H](N2CCN(Cc3ccccc3)CC2)[C@H]1O is 10-fold lower in EC50: 8710 nM for the first, 851 nM for the second.
